Experimental data as given in patent publication US20070249620A1, “Urea Derivative” (priority 2004, published 2007).

Experiments:
[1] = molecular target: T1, mouse DGAT1 (Mus musculus, UniProt Q9Z2A7); assay: DGAT1 inhibitory effect test (microsome fraction, [14C]-oleoyl-CoA, triglyceride radioactivity by TLC); type: biochemical; conditions: 0.5 h; concentration of the test compound 0.1 μg/ml; mouse DGAT1 microsomes, 23° C., 30 minutes; read-out: Inhibitory ratio
T1 construct: made in house; host or cells: insect cells (High Five, Sf9, Sf21, etc.), baculovirus expression system (Invitrogen)
T1 sequence (Q9Z2A7 1-498): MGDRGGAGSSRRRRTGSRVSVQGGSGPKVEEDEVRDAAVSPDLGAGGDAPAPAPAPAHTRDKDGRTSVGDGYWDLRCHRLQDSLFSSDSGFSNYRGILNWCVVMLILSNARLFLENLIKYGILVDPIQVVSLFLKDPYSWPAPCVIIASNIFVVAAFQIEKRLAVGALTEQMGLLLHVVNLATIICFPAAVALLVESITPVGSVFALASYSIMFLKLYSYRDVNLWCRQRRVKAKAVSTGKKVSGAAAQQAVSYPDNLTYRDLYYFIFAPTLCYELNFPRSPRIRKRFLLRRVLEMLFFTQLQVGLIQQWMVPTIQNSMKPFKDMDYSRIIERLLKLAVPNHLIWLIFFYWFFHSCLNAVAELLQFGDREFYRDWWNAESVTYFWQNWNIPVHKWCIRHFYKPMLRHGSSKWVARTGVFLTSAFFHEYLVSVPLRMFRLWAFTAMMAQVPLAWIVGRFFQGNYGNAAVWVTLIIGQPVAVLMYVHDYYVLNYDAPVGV
Method: The cDNA which encodes mouse DGAT1 was cloned from a mouse cDNA library by polymerase chain reaction (hereinafter referred to as “PCR”) and introduced into an insect cell virus vector (baculovirus expression system, Invitrogen). After insect cells (High Five, Sf9, Sf21, etc., Invitrogen) were infected with the virus, the cells were collected in buffer A [0.1M sucrose, 50 mM KCl, 40 mM potassium phosphate (pH 7.4), 30 mM EDTA, 1% Protease inhibitor cocktail (SIGMA, P-8340)] and crushed with a Polytron homogenizer. The supernatant obtained by subjecting the homogenate to low speed centrifugal processing (10,000 ×g, 30 minutes) was further subjected to higher-speed centrifugal processing (100,000 ×g, 60 minutes) and the precipitate was resuspended in buffer A as the microsome fraction and used as DGAT1 enzyme. The DGAT1 enzyme was divided into small volumes and stored at −80° C.
(2) DGAT1 Inhibitory Effect Test
The reaction liquid of the following composition [175 mM Tris-HCl (pH 8.0), 8 mM MgCl2, 1 mg/ml BSA, 0.5 mM 1,2-dioleoyl-sn-glycerol (EtOH solution of 10-fold concentration, 10% added), 30 μM[14C]-oleoyl-CoA (about 50 mCi/mmol), 0.5% triton X-100, DGAT1 enzyme (10 μg) obtained in Test Example 1(1), test compound or vehicle (DMSO/MeOH, 7:3 solution, 5% added), total volume 50 μl] was incubated at room temperature (23° C.) for 30 minutes. A reaction terminating solution (70 μl) consisting of isopropanol/1-heptane/water (80:20:2, v/v/v) was added to the reaction solution and stirred, and subsequently stirred with water (30 μl) and 1-heptane (100 μl). The 1-heptane layer (50 μl) was spotted onto a TLC plate and developed with a developing solvent consisting of 1-hexane/diethyl ether/acetic acid (85:15:1, v/v/v). Radioactivity of triglyceride fraction was quantified by BAS2000 bio image analyzer (Fuji Film) and the inhibitory effect of the test compounds was calculated by the following formula through comparison with control. Here, radioactivity at no reaction (0 minutes incubation) was assumed as background. Inhibitory ratio=100−[(Radioactivity when test compound was added)−(Background)]/[(Radioactivity by control)−(Background)]×100

Row | melting point [°C] | inhibition at 0.1 µg/mL [1] [%] | Structure (SMILES)
1 | 210 | ≥ 50 | CC(C)c1ccc(NC(=O)Nc2ccc(N3CCN(C(=O)OC(C)(C)C)CC3)cc2)cc1 [Example 22, 4-{4-[3-(4-isopropyl-phenyl)-ureido]-phenyl}-piperazine-1-carboxylic acid tert-butyl ester]
2 | 140 to 141 | ≥ 50 | CC(C)(C)OC(=O)N1CCN(c2ccc(NC(=O)Nc3ccc(C(C)(C)C)cc3)cc2)CC1 [Example 33, 4-{4-[3-(4-tert-butyl-phenyl)-ureido]-phenyl}-piperazine-1-carboxylic acid tert-butyl ester]
3 | 200 | ≥ 50 | Cc1ccc(Cl)cc1NC(=O)Nc1ccc(N2CCN(C(=O)OC(C)(C)C)CC2)cc1 [Example 35, 4-{4-[3-(5-chloro-2-methyl-phenyl)-ureido]-phenyl}-piperazine-1-carboxylic acid tert-butyl ester]
4 | 211 to 214 | ≥ 50 | Cc1ccc(F)c(NC(=O)Nc2ccc(N3CCN(C(=O)OC(C)(C)C)CC3)cc2)c1 [Example 37, 4-{4-[3-(2-fluoro-5-methyl-phenyl)-ureido]-phenyl}-piperazine-1-carboxylic acid tert-butyl ester]
5 | 162 | ≥ 50 | CCOc1ccccc1NC(=O)Nc1ccc(N2CCN(C(=O)OC(C)(C)C)CC2)nc1 [Example 39, 4-{5-[3-(2-ethoxy-phenyl)-ureido]-pyridin-2-yl}-piperazine-1-carboxylic acid tert-butyl ester]
6 | 155 to 157 | ≥ 50 | COc1ccc(Cl)cc1NC(=O)Nc1ccc(N2CCN(C(=O)OC(C)(C)C)CC2)nc1 [Example 40, 4-{5-[3-(5-chloro-2-methoxy-phenyl)-ureido]-pyridin-2-yl}-piperazine-1-carboxylic acid tert-butyl ester]
7 | 180 | ≥ 50 | CCOc1ccc(F)cc1NC(=O)Nc1ccc(N2CCN(C(=O)OC(C)(C)C)CC2)nc1 [Example 46, 4-{5-[3-(2-ethoxy-5-fluoro-phenyl)-ureido]-pyridin-2-yl}-piperazine-1-carboxylic acid tert-butyl ester]
8 | 170 to 171 | ≥ 50 | COc1ccc(C)cc1NC(=O)Nc1ccc(N2CCN(C(=O)Nc3ccccc3C(F)(F)F)CC2)cc1 [Example 53, 4-{4-[3-(2-methoxy-5-methyl-phenyl)-ureido]-phenyl}-piperazine-1-carboxylic acid (2-trifluoromethyl-phenyl)-amide]
9 | 209 to 211 | ≥ 50 | COc1ccc(C)cc1NC(=O)Nc1ccc(N2CCN(C(=O)Nc3ccccc3C)CC2)cc1 [Example 54, 4-{4-[3-(2-methoxy-5-methyl-phenyl)-ureido]-phenyl}-piperazine-1-carboxylic acid o-tolylamide]
10 | 212 to 214 | ≥ 50 | COc1ccc(C)cc1NC(=O)Nc1ccc(N2CCN(C(=O)Nc3ccccc3Br)CC2)cc1 [Example 57, 4-{4-[3-(2-methoxy-5-methyl-phenyl)-ureido]-phenyl}-piperazine-1-carboxylic acid (2-bromo-phenyl)-amide]
11 | 220 to 221 | ≥ 50 | CCc1ccccc1NC(=O)N1CCN(c2ccc(NC(=O)Nc3cc(C)ccc3OC)cc2)CC1 [Example 58, 4-{4-[3-(2-methoxy-5-methyl-phenyl)-ureido]-phenyl}-piperazine-1-carboxylic acid (2-ethyl-phenyl)-amide]
12 | 143 to 145 | ≥ 50 | COc1ccc(C)cc1NC(=O)Nc1ccc(N2CCN(C(=O)Nc3c(C)cccc3Cl)CC2)cc1 [Example 59, 4-{4-[3-(2-methoxy-5-methyl-phenyl)-ureido]-phenyl}-piperazine-1-carboxylic acid (2-chloro-6-methyl-phenyl)-amide]
13 | 213 to 215 | ≥ 50 | COc1ccc(C)cc1NC(=O)Nc1ccc(N2CCN(C(=O)Nc3c(C)cccc3[N+](=O)[O-])CC2)cc1 [Example 60, 4-{4-[3-(2-methoxy-5-methyl-phenyl)-ureido]-phenyl}-piperazine-1-carboxylic acid (2-methyl-6-nitro-phenyl)-amide]
14 | 210 to 212 | ≥ 50 | COc1ccc(C)cc1NC(=O)Nc1ccc(N2CCN(C(=O)Nc3ccccc3C#N)CC2)cc1 [Example 61, 4-{4-[3-(2-methoxy-5-methyl-phenyl)-ureido]-phenyl}-piperazine-1-carboxylic acid (2-cyano-phenyl)-amide]
15 | 212 to 214 | ≥ 50 | COc1ccc(C)cc1NC(=O)Nc1ccc(N2CCN(C(=O)Nc3c(C)cccc3C)CC2)cc1 [Example 62, 4-{4-[3-(2-methoxy-5-methyl-phenyl)-ureido]-phenyl}-piperazine-1-carboxylic acid (2,6-dimethyl-phenyl)-amide]
16 | 134 to 136 | ≥ 50 | COc1ccc(C)cc1NC(=O)Nc1ccc(N2CCN(C(=O)Nc3c(F)cccc3C(F)(F)F)CC2)cc1 [Example 64, 4-{4-[3-(2-methoxy-5-methyl-phenyl)-ureido]-phenyl}-piperazine-1-carboxylic acid (2-fluoro-6-trifluoromethyl-phenyl)-amide]
17 | 210 to 221 | ≥ 50 | COc1ccc(C)cc1NC(=O)Nc1ccc(N2CCN(C(=O)Nc3c(Cl)cccc3Cl)CC2)cc1 [Example 65, 4-{4-[3-(2-methoxy-5-methyl-phenyl)-ureido]-phenyl}-piperazine-1-carboxylic acid (2,6-dichloro-phenyl)-amide]
18 | 196 to 197 | ≥ 50 | COc1ccc(C)cc1NC(=O)Nc1ccc(N2CCN(C(=O)Nc3c(Cl)cccc3C(F)(F)F)CC2)cc1 [Example 66, 4-{4-[3-(2-methoxy-5-methyl-phenyl)-ureido]-phenyl}-piperazine-1-carboxylic acid (2-chloro-6-trifluoromethyl-phenyl)-amide]
19 | 193 to 195 | ≥ 50 | COc1ccc(NC(=O)N2CCN(c3ccc(NC(=O)Nc4cc(C)ccc4OC)cc3)CC2)c(C)c1 [Example 73, 4-{4-[3-(2-methoxy-5-methyl-phenyl)-ureido]-phenyl}-piperazine-1-carboxylic acid (4-methoxy-2-methyl-phenyl)-amide]
20 | 172 to 173 | ≥ 50 | CCCCc1ccc(NC(=O)N2CCN(c3ccc(NC(=O)Nc4cc(C)ccc4OC)cc3)CC2)c(C)c1 [Example 75, 4-{4-[3-(2-methoxy-5-methyl-phenyl)-ureido]-phenyl}-piperazine-1-carboxylic acid (4-butyl-2-methyl-phenyl)-amide]
21 | 186 to 187 | ≥ 50 | COc1ccc(C)cc1NC(=O)Nc1ccc(N2CCN(C(=O)Nc3ccc(C)cc3Cl)CC2)cc1 [Example 76, 4-{4-[3-(2-methoxy-5-methyl-phenyl)-ureido]-phenyl}-piperazine-1-carboxylic acid (2-chloro-4-methyl-phenyl)-amide]
22 |  | ≥ 50 | COc1ccc(C)cc1NC(=O)Nc1ccc2c(c1)CCN(C(=O)Nc1ncccc1C)C2 [Example 297, 6-[3-(2-methoxy-5-methyl-phenyl)-ureido]-3,4-dihydro-1H-isoquinoline-2-carboxylic acid (3-methyl-pyridin-2-yl)-amide]

Row | Structure (SMILES) | melting point [°C] | inhibition at 0.1 µg/mL [1] [%]
23 | CCOP(=O)(Cc1ccc(NC(=O)N2CCN(c3ccc(NC(=O)Nc4cc(C)ccc4OC)cc3)CC2)c(C)c1)OCC [Example 390, {4-[(4-{4-[3-(2-methoxy-5-methyl-phenyl)-ureido]-phenyl}-piperazine-1-carbonyl)-amino]-3-methyl-benzyl}-phosphonic acid diethyl ester] |  | ≥ 50
